From US6471976B1, “Copper complex bactericide/fungicide and method of making same” (priority 1990, dated 2002)

System: Colletotrichum lagenarium
Assay: Efficacy against Colletotrichum lagenarium on cucumber plants
Settings: in vivo

Structure (SMILES): [Cu] [copper]
- estimated LD90 rate for the control of Colletotrichum lagenarium on cucumber plants: 200 ppm
